The experiment deals with ndSQR (sulfide quinone oxidoreductase in nanodiscs) (Homo sapiens, UniProt Q9Y6N5). Put plainly: spectral titration of charge-transfer complex at […] nm. The class given is binding.
Sequence of ndSQR (sulfide quinone oxidoreductase in nanodiscs) (Q9Y6N5 42-450): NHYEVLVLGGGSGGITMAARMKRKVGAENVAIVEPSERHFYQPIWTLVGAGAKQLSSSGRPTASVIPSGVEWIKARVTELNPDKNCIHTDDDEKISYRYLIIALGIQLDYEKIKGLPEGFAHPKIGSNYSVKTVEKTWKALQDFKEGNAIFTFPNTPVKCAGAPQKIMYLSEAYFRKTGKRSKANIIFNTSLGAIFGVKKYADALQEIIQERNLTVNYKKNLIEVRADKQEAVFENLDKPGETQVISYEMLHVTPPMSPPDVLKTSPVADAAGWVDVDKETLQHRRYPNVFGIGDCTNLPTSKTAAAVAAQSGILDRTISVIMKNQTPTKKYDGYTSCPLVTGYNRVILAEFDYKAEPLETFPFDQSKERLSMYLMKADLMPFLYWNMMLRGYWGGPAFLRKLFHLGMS

One may read the Kd as the equilibrium constant for the complex coming apart. A higher Kd goes with a looser complex. In the case of `CS` [MeSH], binding was put at a Kd of 38 ± 1 µM.

Values taken from article PMC6449043 (ACS chemical biology, 2018).
